Measurements taken from patent US9850276B2, “Bidentate-binding modulators of LRRK2 and JNK kinases” (THE SCRIPPS RESEARCH INSTITUTE, priority 2013, dated 2017).

Tests used:
[1] = system: cardiomyocyte apoptosis and infarct size; details: rats; cited from earlier work
[2] = system: infarct size in rat hearts; test: I/R MI rat model, 30 minutes ischemia and 24 hours reperfusion; type: in vivo; details: 5 mg/kg SR-3306; anesthetized rats; p<0.05
Protocol: The in vivo efficacy of SR-3306 in anesthetized rats after 30 minutes ischemia and 24 hours reperfusion was evaluated.

H9c2 cells [3] = test: Mitochondrial membrane potential under H2O2 (Rhodamine 123 detection); type: cell-based; details: 25 μM H2O2
Protocol: (§1) To test whether JNK mitochondrial localization had effects on mitochondrial function we measured the impact of Tat-Sab, and a small molecule JNK inhibitor, SR-3306 (commercially available from Calbiochem), on ROS generation and mitochondrial membrane depolarization in H9c2 cells treated with H2O2. The ROS fluorescence/cell in the absence of oxidative stress (PBS), was compared to treatment with either 25 μM H2O2, or 25 μM H2O2+500 nM SR-3306, or 25 μM H2O2+3 μM Tat-scramble peptide, or 25 μM H2O2+3 μM Tat-Sab peptide.
(§2) A similar effect was seen when mitochondrial membrane potential was measured by Rhodamine 123 detection. […] Similarly, both ROS generation and membrane depolarization effects elicited by oxidative stress in H92c cells were blocked by inhibition of JNK with the small molecule, SR-3306 (commercially available from Calbiochem). Finally, the effect of SR-3306 or Tat-Sab on cell viability in response to oxidative stress was measured by a Cell-Titer Glo luminescent assay. H9c2 cells treated with 25 μM H2O2 were ˜40% viable, whereas addition of 500 nM SR-3306 to cells treated with 25 μM H2O2 increased viability to ˜80%, and addition of 3 μM Tat-Sab peptide to cells treated with 25 μM H2O2 increased viability to ˜65% compared to 95% viable in untreated cells.

H9c2 cells [4] = test: Cell viability under oxidative stress (Cell-Titer Glo luminescent assay); type: cell-based; details: 25 μM H2O2 + 500 nM SR-3306
Protocol: as §2

H9c2 cells [5] = test: ROS generation under H2O2 oxidative stress; type: cell-based; details: 25 μM H2O2 + 500 nM SR-3306
Protocol: as §1

SMILES	cardiomyocyte apoptosis and infarct size after I/R [1]	infarct size (IS) [2]	mitochondrial membrane potential perturbation / depolarization (H9c2 cells [3])	cell viability (H9c2 cells [4])	reduction of ROS generation compared to 25 μM H2O2 treatment (H9c2 cells [5])
N#CC(c1ccnc(NCCc2cccnc2)n1)c1nc2ccccc2s1 (centres unmarked) [AS601245]	decreased cardiomyocyte apoptosis and infarct size				
Cc1ccc(-c2ncn(-c3ccc(Nc4nccc(-c5cccc(N6CCOCC6)c5)n4)cc3)n2)cn1 [SR-3306]		23±3.5 % of AAR	blocked	~80%	~2 fold
